These are literature values, as cited in US20160256406A1, “OLIGOMERIC/POLYMERIC SILICONE FLUIDS FOR USE IN TRANSDERMAL DRUG DELIVERY SYSTEMS” (priority 2015, published 2016).

For data set [1] the following is noted: at RT.
The conditions of data set [2]: at RT. This is another data set of the same source.

Each structure is given as a SMILES string.

Take `C[Si](C)(C)O[Si](C)(C)O[Si](C)(C)O[Si](C)(C)C` [L4, Decamethyltetrasiloxane]: the “Octanol/Water Partition Coefficient (Log Kow)” value in data set [1] is on record as 5.4.

On to `C[Si](C)(C)O[Si](C)(C)O[Si](C)(C)C` [L3, Octamethyltrisiloxane], for which, in data set [1], the “Octanol/Water Partition Coefficient (Log Kow)” value was 4.8.

Take `C[Si](C)(C)O[Si](C)(C)O[Si](C)(C)O[Si](C)(C)O[Si](C)(C)C` [L5, Dodecamethylpentasiloxane]: in data set [1], the “Octanol/Water Partition Coefficient (Log Kow)” value is recorded as 6.0.

Regarding `C[Si](C)(C)O[Si](C)(C)C` [L2, Hexamethyldisiloxane], in data set [1], the “Octanol/Water Partition Coefficient (Log Kow)” value is on record as 4.2.

For `C[Si]1(C)O[Si](C)(C)O[Si](C)(C)O1` [D3, Hexamethylcyclotrisiloxane], the “Octanol/Water Partition Coefficient (Log Kow)” value in data set [1] is reported as 4.5.

On to `C[Si]1(C)O[Si](C)(C)O[Si](C)(C)O[Si](C)(C)O[Si](C)(C)O[Si](C)(C)O1` [D6, Dodecamethylcyclohexasiloxane], for which, in data set [2], the “Water Solubility” value is 0.005 µg/mL. Moreover, the “Octanol/Water Partition Coefficient (Log Kow)” value in data set [1] was 6.3.

For the compound `C[Si]1(C)O[Si](C)(C)O[Si](C)(C)O[Si](C)(C)O[Si](C)(C)O1` [D5, Decamethylcyclopentasiloxane], in data set [2], the “Water Solubility” value is 0.017 to 0.050 µg/mL. Also, the “Octanol/Water Partition Coefficient (Log Kow)” value in data set [1] was 5.2-5.7.

On to `C[Si]1(C)O[Si](C)(C)O[Si](C)(C)O[Si](C)(C)O1` [D4, Octamethylcyclotetrasiloxane], for which the “Octanol/Water Partition Coefficient (Log Kow)” value in data set [1] is 5.1.
